Experiment [1] deals with T1, KIF18A (Homo sapiens, UniProt Q8NI77).
T1 sequence (Q8NI77 1-898): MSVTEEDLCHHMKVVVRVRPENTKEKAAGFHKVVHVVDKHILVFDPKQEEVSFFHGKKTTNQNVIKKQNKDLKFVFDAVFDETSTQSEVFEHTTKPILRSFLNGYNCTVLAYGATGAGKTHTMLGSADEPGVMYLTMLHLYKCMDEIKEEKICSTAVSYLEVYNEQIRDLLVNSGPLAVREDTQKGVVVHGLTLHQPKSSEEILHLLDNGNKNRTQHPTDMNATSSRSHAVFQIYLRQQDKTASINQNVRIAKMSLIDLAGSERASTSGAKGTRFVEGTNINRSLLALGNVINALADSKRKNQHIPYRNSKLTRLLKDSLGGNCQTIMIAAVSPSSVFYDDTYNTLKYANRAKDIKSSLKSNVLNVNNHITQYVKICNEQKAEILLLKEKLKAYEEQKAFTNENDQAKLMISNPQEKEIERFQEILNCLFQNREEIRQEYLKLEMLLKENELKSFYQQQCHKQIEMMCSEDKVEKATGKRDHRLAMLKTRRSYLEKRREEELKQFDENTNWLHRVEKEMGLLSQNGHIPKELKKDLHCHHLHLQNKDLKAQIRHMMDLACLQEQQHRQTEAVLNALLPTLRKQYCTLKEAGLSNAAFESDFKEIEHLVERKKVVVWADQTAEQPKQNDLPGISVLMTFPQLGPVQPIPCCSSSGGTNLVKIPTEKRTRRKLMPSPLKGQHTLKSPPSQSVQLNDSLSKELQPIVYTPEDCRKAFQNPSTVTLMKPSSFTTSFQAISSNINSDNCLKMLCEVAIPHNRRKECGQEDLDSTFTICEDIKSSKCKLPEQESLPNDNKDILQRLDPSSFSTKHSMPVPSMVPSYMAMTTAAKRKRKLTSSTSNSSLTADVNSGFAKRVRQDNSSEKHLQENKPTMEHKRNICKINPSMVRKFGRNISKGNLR
Description: KIF18A enzyme activity test (ADP Glo). Format: biochemical. The note with it: ADP Glo luminescence, 60 min reaction at room temperature, 1% DMSO. As for the experimental part: Test name: KIF18A enzyme activity test
• 1) Compound dilution and treatment: The final concentrations of AM-5308: 10000, 3333.3, 1111.1, 370.3, 123.4, 41.1, 13.7, 4.5, 1.5, 0.5 nM, the final testing concentrations of the testing compound: 10000, 3333.3, 1111.1, 370.3, 123.4, 41.1, 13.7, 4.5, 1.5 and 0.5 nM. • 2) To each well of the reaction plate, 100 nL of the diluted compound stock solution was transferred using Echo 655. The final concentration of DMSO was 1%. • 3) The reaction plate was sealed with a sealing membrane and centrifuged at 1000g for 1 min. • 4) A 2× enzyme solution was prepared with 1× reaction buffer. • 5) To each well of the reaction plate, 5 µL of 2×enzyme solution was added. The plate was sealed with a sealing membrane, centrifuged at 1000g for 1 min and left at room temperature for 15 min. • 6) A 2× ATP solution was prepared with 1× reaction buffer. • 7) To the reaction plate, 5 µL of 2×ATP solution was added, the plate was centrifuged at 1000g for 1 min, and the reaction was started. • 8) The system was allowed to react at room temperature for 60 min. • 9) 10 µL of ADP Glo reagent was added. The system was centrifuged at 1000 g for 1 min and incubated at room temperature for 60 min. • 10) 20 µL of kinase detection reagent was added. The system was centrifuged at 1000 g for 1 min, and incubated at room temperature for 60 min. • 11) The system was centrifuged at 1000 g for 1 min. • 12) The luminescence signals were read on Envision 2104.
The inhibition percentage is calculated as follows: %inhibition = 100−(Signalcmpd−SignalAve_PC)/(SignalAve_VC−SignalAve_PC) × 100 [formula] • Signalcmpd: Average value of the test compound on the reaction plate. • SignalAve_PC: Average value of the positive control (AM-5308) on the reaction plate. • SignalAve_VC: Average value of the negative control (DMSO) on the reaction plate.
IC50 was calculated and the dose-effect curve was fit: The IC50 of the compound was obtained by non-linear fitting formula with GraphPad 8.0.
Z factor > 0.5; S/B > 2. Table 2 Enzyme activity data for the compound of the present application

The test system of experiment [2] is OVCAR-3 cells. The experiment is described as follows: imaging-based nuclear count analysis (NCA) in OVCAR-3 cells. Format: cell-based. The note with it: cultured 4 days, Hoechst 33342 nuclear count, 0.1% DMSO. On the procedure: Test name: imaging-based nuclear count analysis (NCA) in OVCAR-3 cells
• a) When the cell confluence reached 80%-90%, the cells were treated. • b) The cells were resuspended in a medium and then counted and diluted at a desired density. • c) A cell suspension containing appropriate cells was added to the 384-well plate at 30 µL/well: 600 cells/well.
• a) 30 µL of 8% fixative (final concentration 4%) was added and the plate was incubated at room temperature for 30 min. • b) The plate was centrifuged at 1000RPM for 30s. • c) The plate was washed twice with 60 µl/well PBS. • d) After immobilization, the cells were permeabilized and stained in 60 µL of a wash buffer containing 2 µg/mL Hoechst 33342 DNA dye (1% BSA, 0.2% Triton X-100, 1X PBS). • e) The plate was sealed and incubated at room temperature in the dark for 1 h. • f) It was washed with PBS 3 times. • g) 50µLPBS/well was added and the plate was scanned using HCS. • h) Data acquisition and detection
High-reading control wells: cells + 30 nL DMSO; low-reading control wells: 10 µM AM-5308.
IC50 (nM) was calculated using GraphPad Prism 8 software and the effect-dose curves of the compound were plotted. Table 1 Bioactivity data of the compound of the present application

As usually defined, the IC50 is the concentration that inhibits the measured activity by half. Consider `COc1ccc2c(NC(=O)c3ccc(NS(=O)(=O)CCO)cc3N3CCC4(CC3)CC4)cccc2c1` [Compound 1, 2-{6-azaspiro[2.5]octan-6-yl}-4-(2-hydroxyethanesulfonylamino)-N-(6-methoxynaphthalen-1-yl)benzamide], for which the half-inhibitory concentration (IC50) in experiment [1] stood at 21.2 nM; in experiment [2] (Homo sapiens, 96 h), 163 nM.

In turn, `O=C(Nc1cccc2ccccc12)c1ccc(NS(=O)(=O)CCO)cc1N1CCC2(CC1)CC2` [Compound 2, 2-{6-azaspiro[2.5]octan-6-yl}-4-(2-hydroxyethanesulfonylamino) -N-(naphthalen-1-yl)benzamide] displayed a half-inhibitory concentration (IC50) in experiment [2] (Homo sapiens, 96 h) of 568 nM. In turn, `Cc1ccc2c(NC(=O)c3ccc(NS(=O)(=O)CCO)cc3N3CCC4(CC3)CC4)cccc2c1` [Compound 4, 2-{6-azaspiro[2.5]octan-6-yl}-4-(2-hydroxyethanesulfonylamino) -N-(6-methylnaphthalen-1-yl)benzamide] came in with an IC50 in experiment [2] (Homo sapiens, 96 h) of 478 nM. Still for that read-out and setting: as for `O=C(Nc1cccc2cc(Cl)ccc12)c1ccc(NS(=O)(=O)CCO)cc1N1CCC2(CC1)CC2` [Compound 5, {6-azaspiro[2.5]octan-6-yl}-N-(6-chloronaphthalen-1-yl)-4-(2-hydroxyethanesulfonylamino) benzamide], the figure is 369 nM; as for `O=C(Nc1cccc2ccc(F)cc12)c1ccc(NS(=O)(=O)CCO)cc1N1CCC2(CC1)CC2` [Compound 6, 2-{6-azaspiro[2.5]octan-6-yl}-N-(7-fluoronaphthalen-1-yl)-4-(2-hydroxyethanesulfonylamino) benzamide], 976 nM; as for `O=C(Nc1cccc2cc(C(F)(F)F)ccc12)c1ccc(NS(=O)(=O)CCO)cc1N1CCC2(CC1)CC2` [Compound 7, 2-{6-azaspiro[2.5]octan-6-yl}-4-(2-hydroxyethanesulfonylamino) -N-(6-(trifluoromethyl)naphthalen-1-yl)benzamide], 458 nM. Same read-out and setting: as for `O=C(Nc1cccc2c1CCC1(CCCC1)C2)c1ccc(NS(=O)(=O)CCO)cc1N1CCC2(CC1)CC2` [Compound 51, 2-{6-azaspiro[2.5]octan-6-yl}-N-{3',4'-dihydro-1'H-spiro[cyclopentane-1,2'-naphthalen]-5'-yl}-4-(2-hydroxyethanesulfonylamino)benzamide], the figure is 258 nM; as for `O=C(Nc1cccc2c1CCC1(CC1)C2)c1ccc(NS(=O)(=O)CCO)cc1N1CCC2(CC1)CC2` [Compound 56, 2-{6-azaspiro[2.5]octan-6-yl}-N-{3',4'-dihydro-1'H-spiro[cyclopropane-1,2'-naphthalen]-5'-yl}-4-(2-hydroxyethanesulfonylamino)benzamide], 73.1 nM. The same measure, in the same setting: then `Cc1cc(NC(=O)c2ccc(NS(=O)(=O)CCO)cc2N2CCC3(CC2)CC3)nc2c1nc1n2CC(F)(F)CC1` [Compound 64, N-(8,8-difluoro-4-methyl-pyrido[2,3-d]imidazo[1,2-a]piperidin-2-yl)-4-(2-hydroxyethanesulfonylamino)-2-(6-azaspiro[2.5]octan-6-yl)benzamide], with 763 nM; and `O=C(Nc1cccc2c1nc1n2CCC1(F)F)c1ccc(NS(=O)(=O)CCO)cc1C1=CCC2(CC1)CC2` [Compound 90, N-(3,3-difluoro-2,3-dihydro-1H-benzo[d]pyrrolo[1,2-a]imidazol-5-yl)-4-(2-hydroxyethanesulfonylamino)-2-(spiro[2.5]oct-5-en-6-yl)benzamide], with 71.2 nM. In the case of `COc1ccc2c(NC(=O)c3ccc(NS(=O)(=O)CCO)cc3N3CCC4(CC3)CC4)ccnc2c1` [Compound 95], the IC50 in experiment [2] (Homo sapiens, 96 h) is 98.9 nM. The same measure, in the same setting: as for `Cc1cc(NC(=O)c2ccc(NS(=O)(=O)CCO)cc2N2CCC3(CC2)CC3)c2nc3n(c2c1)[C@H]1CC[C@@H]3C1` [Compound 99, 4-(2-hydroxyethanesulfonylamino)-N-((1S,4R)-8-methyl-1,2,3,4-tetrahydro-1,4-methylenebenzo[4,5]imidazo[1,2-a]pyridin-6-yl)-2-(6-azaspiro[2.5]octan-6-yl)benzamide], the figure is 109 nM.

On to `O=C(Nc1cccc2c1nc1n2C2CCC1CC2)c1ccc(NS(=O)(=O)CCO)cc1N1CCC2(CC1)CC2` [Compound 100, 4-(2-hydroxyethanesulfonylamino)-2-(6-azaspiro[2.5]octan-6-yl)-N-(1,2,3,4-tetrahydro-1,4-ethylbenzo[4,5]imidazo[1,2-a]pyridin-6-yl)benzamide], for which, in experiment [2], the IC50 amounted to 110 nM. `CC1CCn2c1nc1c(NC(=O)c3ccc(NS(=O)(=O)CCO)cc3N3CCC4(CC3)CC4)cccc12` (stereo not shown) [Compound 106, 4-(2-hydroxyethanesulfonylamino) -N-(3-methyl-2,3-dihydro-1H-benzo[d]pyrrolo[1,2-a]imidazol-5-yl)-2-(6-azaspiro[2.5]octan-6-yl)benzamide] gave an IC50 in experiment [2] (Homo sapiens, 96 h) of 125 nM.

Regarding `O=C(Nc1cccc2c1nc1n2CCCCC1)c1ccc(NS(=O)(=O)CCO)cc1C1=CCC2(CC1)CC2` [Compound 108, 4-(2-hydroxyethanesulfonylamino) -2-(spiro[2.5]oct-5-en-6-yl)-N-(7,8,9,10-tetrahydro-6H-benzo[4,5]imidazo[1,2-a]azepin-4-yl)benzamide], inhibition in experiment [2] (Homo sapiens, 96 h) was half-maximal at 183 nM (IC50). Same read-out and setting: as for `O=C(Nc1cccc2c1oc1ccccc12)c1ccc(NS(=O)(=O)CCO)cc1N1CCC2(CC1)CC2` [Compound 111, N-(dibenzo[b,d]furan-4-yl)-4-(2-hydroxyethanesulfonylamino)-2-(6-azaspiro[2.5]octan-6-yl)benzamide], the figure is 161 nM; as for `O=C(Nc1ccnc2cc(C3CC3)ccc12)c1ccc(NS(=O)(=O)CCO)cc1N1CCC2(CC1)CC2` [Compound 112, 2-{6-azaspiro[2.5]octan-6-yl}-N-(7-cyclopropylquinolin-4-yl)-4-(2-hydroxyethylsulfonylamino)benzamide], 117 nM; as for `O=C(Nc1cc(F)cc2c1nc1n2[C@H]2CC[C@@H]1C2)c1ccc(NS(=O)(=O)CCO)cc1N1CCC2(CC1)CC2` [Compound 113a, N-((1S,4R)-8-fluoro-1,2,3,4-tetrahydro-1,4-methylenebenzo[4,5]imidazo [1,2-a]pyridin-6-yl)4-(2-hydroxyethanesulfonylamino) -2-(6-azaspiro[2.5]octan-6-yl)benzamide], 97.9 nM.
